From patent publication US9006439B2, “Camptothecin derivatives having anti-tumor activity” (priority 2011, dated 2015)
Read-outs that look alike come from different tables or passages of the source. Marks after values point to notes of the source that are not given here.

Assays:
[1] = tested on: A549 (non-small cell lung cancer) cells; assay: MTT in vitro cytotoxicity, A549; assay type: cell-based, human; settings: read-out: Concentration to inhibit 50% cell growth (IC50 nM ± SD), A549
Procedure: (§1) In vitro cytotoxicity was measured with MTT. Cell suspension was prepared using cells in good condition and seeded at 200 μl/well on a 96 well plate before culturing for 24 hours in a temperature-controlled CO2 incubator. The test drug was added at 20 μl/well and cultured for 48 hours. MTT was added to the 96 well plate at 20 ul/well and allowed to react for 4 hours in the incubator. The supernatant was removed and DMSO was added at 20 μl/well. Cytotoxicity was determined by the absorbance measured by Enzyme-linked immunosorbent assay at a wavelength of 570 nm.

[2] = tested on: HT-29 (colon cancer) cells; assay: MTT in vitro cytotoxicity, HT-29; assay type: cell-based, human; settings: read-out: Concentration to inhibit 50% cell growth (IC50 nM ± SD), HT-29
Procedure: as §1

[3] = tested on: OV-3 (ovarian cancer) cells; assay: MTT in vitro cytotoxicity, OV-3; assay type: cell-based, human; settings: read-out: Concentration to inhibit 50% cell growth (IC50 nM ± SD), OV-3
Procedure: as §1

U87 (glioma) cells = assay: MTT in vitro cytotoxicity, U87; assay type: cell-based, human; settings: read-out: Concentration to inhibit 50% cell growth (IC50 nM ± SD), U87
Procedure: as §1

[4] = tested on: BX-PC3 (pancreatic cancer) cells; assay: MTT in vitro cytotoxicity, BX-PC3; assay type: cell-based, human; settings: read-out: Concentration to inhibit 50% cell growth (IC50 nM ± SD), BX-PC3
Procedure: as §1

[5] = tested on: U87, BX-PC3, HT-29, OV-3 and A549 cell lines; assay: MTT in vitro cytotoxicity, five cell lines together (mean / overall); settings: for in vitro activity / cytotoxicity (in words): MTT, A549, HT-29, OV-3, U87, BX-PC3
Procedure: as §1

[6] = tested on: MX-1 human breast cancer xenograft; assay: Therapeutic effect on nude mouse with MX-1 xenograft; assay type: in vivo; settings: for Maximum change in weight (%) / Tumor disappear: iv; for Tumor disappear: animals with tumor not detectable visually, observed for 60 days; for T.S. (mm3) D 16: tumor size 16 days after treatment, iv tail vein; for T.S. (mm3) D 16 / T.S. (mm3) D 0: MX-1; for T.S. (mm3) D 0: tumor size at day 0 (baseline)
Procedure: (§2) Methods: female nude mice were used for the experiments. Transplantation of tumors: Actively growing tumor tissues were cut into small pieces with sterilized scissors and each mouse was inoculated with 50 mg of the tumor tissue. Treatment began on days 6-10 after tumor transplantation when the weight of the tumor was around 300 mg. The nude mice were weighed and the tumor size was measured every other day. Transplanted tumors: human breast cancer (MX-1), human non-small cell lung cancer (A549), human ovarian carcinoma (SK-0V3), human colon carcinoma (HT29), human pancreatic cancer (BX-PC-3).
B: Tumor disappearance: tumor could not be detected visually 60 days after the experiment

[7] = tested on: SK-OV3 human ovarian carcinoma xenograft; assay: Therapeutic effect on nude mice with SK-OV3 xenograft; assay type: in vivo; parameters: Tumor inhibition: unit not given here; settings: for Tumor inhibition: 16 days after treatment; for Tumor inhibition / Maximum change in weight (%): iv; for Tumor inhibition / T.S. (mm3) D 16 / T.S. (mm3) D 0: SK-OV3; for T.S. (mm3) D 16: tumor size 16 days after treatment, iv tail vein; for T.S. (mm3) D 0: tumor size at day 0 (baseline)
Procedure: as §2

[8] = tested on: intra-cerebrally transplanted U87 human glioma brain tumor; assay: Therapeutic effect on intra-cerebrally transplanted U87 brain tumor; assay type: in vivo, mice
From the text: Methods: female nude mice were used for the experiments.
Dosing regimen: once every two days, a total of four times; route of administration: intravenous injection at the tail vein. Mice died from brain tumor after inoculation with 2×10^5 cells. #: Comparing CPT1 with irinotecan and gimatecan.

[9] = Determination of equitoxic dose (maximum tolerated dose); assay type: in vivo, nude mice; settings: q2dx4, decrease in weight of around 15%; for MTD: nude, mouse, in vivo, intravenous, read-out: Experimentally determined dosage at the same level of toxicity (maximum tolerated dose)
Procedure: (§3) CP1 had better solubility and stability than CPT2-10.
Dosing regimen: once every two days, a total of four times; route of administration: intravenous injection at the tail vein. # At 16 days after treatment. […] The doses used were those that were determined experimentally to cause the same toxicity of weight decrease by 12-15%. T.S: tumor size

[10] = Solubility and stability comparison; assay type: physicochemical
From the text: as §3

[11] = tested on: a variety of transplanted tumors; settings: at maximum tolerated dose
Procedure: as §2

[12] = MX-1 nude mouse, once every two days, four times
[13] = once every two days, four times
[14] = SK-OV3 nude mice, once every two days, four times
[15] = inoculation with 2×10^5 U87 cells intra-cerebrally, iv, once every two days, four times
[16] = MTT, drug cultured 48 hours, A549
[17] = MTT, drug cultured 48 hours, HT-29
[18] = MTT, drug cultured 48 hours, OV-3
[19] = MTT, drug cultured 48 hours, U87
[20] = MTT, drug cultured 48 hours, BX-PC3
[21] = read-out: Concentration to inhibit 50% cell growth, mean (average concentration), mean over U87, BX-PC3, HT-29, OV-3, A549

## CC[C@@]1(O)C(=O)OCc2c1cc1n(c2=O)Cc2c-1nc1ccccc1c2/C=N/OC(C)(C)C [Gimatecan]
[1]; Homo sapiens, A549, 48 h
  IC50: 4.7 ± 0.2 nM
[2]; Homo sapiens, HT-29, 48 h
  IC50: 3.6 ± 0.3 nM
[3]; Homo sapiens, 48 h
  IC50: 3.1 ± 2.2 nM
U87 (glioma) cells; Homo sapiens, U-87 MG, 48 h
  IC50: 0.6 ± 0.2 nM
[4]; Homo sapiens, BXPC-3, 48 h
  IC50: 1.5 ± 0.8 nM
[5]; Homo sapiens, read-out: Concentration to inhibit 50% cell growth, mean (average concentration), mean over U87, BX-PC3, HT-29, OV-3, A549
  IC50: 2.7 nM
[6]; [12]
  Maximum change in weight (%): −13%
[6]; [13]
  Tumor disappear: 6/6
  T.S. (mm3) D 16: 0 mm3
[6]
  T.S. (mm3) D 0: 328 ± 65 mm3
[7]; [13]
  Tumor inhibition: 68.4
  T.S. (mm3) D 16: 578 ± 61 mm3
[7]; [14]
  Maximum change in weight (%): −12%
[7]
  T.S. (mm3) D 0: 203 ± 33 mm3
[8]; [15]
  Average survival time: 23.1 ± 1.6 days
[9]
  MTD: 1 mg/kg

## CCC1(OC(=O)C(N)Cc2ccccc2)C(=O)OCc2c1cc1n(c2=O)Cc2cc3c(CC=NOC(C)(C)C)c(OC(=O)N4CCC(N5CCCCC5)CC4)ccc3nc2-1 (stereo not shown) [CPT9, 9-t-butyloxyethyloxime-10-[(4′-piperidinylpiperidinyl)carbonyloxy]-20-phenylalanine carbonyloxy-camptothecin]
[5]
  in vitro activity / cytotoxicity (in words): do not have significant activities in vitro

## CCC1(O)C(=O)OCc2c1cc1n(c2=O)Cc2cc3c(CC=NOC(C)(C)C)c(OC(=O)C(N)Cc4ccccc4)ccc3nc2-1 (stereo not shown) [CPT4, 9-t-butyloxyethyloxime-10-phenylalanine-carbonyloxy-camptothecin]
[5]
  in vitro activity / cytotoxicity (in words): do not have significant activities in vitro

## CCc1c2c(nc3ccc(OC(=O)N4CCC(N5CCCCC5)CC4)cc13)-c1cc3c(c(=O)n1C2)COC(=O)[C@]3(O)CC [Irinotecan]
[6]; [12]
  Maximum change in weight (%): −12%
[6]; [13]
  Tumor disappear: 6/6
  T.S. (mm3) D 16: 0 mm3
[6]
  T.S. (mm3) D 0: 361 ± 54 mm3
[7]; [13]
  Tumor inhibition: 75.3
  T.S. (mm3) D 16: 451 ± 56 mm3
[7]; [14]
  Maximum change in weight (%): −13%
[7]
  T.S. (mm3) D 0: 214 ± 26 mm3
[8]; [15]
  Average survival time: 22.8 ± 1.4 days
[9]
  MTD: 55 mg/kg

## CCC1(O)C(=O)OCc2c1cc1n(c2=O)Cc2cc3c(CC=NOC(C)(C)C)cccc3nc2-1 (stereo not shown) [CPT7, 9-t-butyloxyethyloxime-camptothecin]
[1]; [16]
  IC50: 5.5 ± 0.8 nM
[2]; [17]
  IC50: 3.1 ± 1 nM
[3]; [18]
  IC50: 4.1 ± 0.4 nM
U87 (glioma) cells; [19]
  IC50: 1.5 ± 0.3 nM
[4]; [20]
  IC50: 2.1 ± 1.2 nM
[5]
  in vitro activity / cytotoxicity (in words): significant cytotoxicity
[5]; [21]
  IC50: 3.3 nM

## 9-t-butyloxyethyloxime-10-hydroxy-camptothecin [CPT2]
[1]; [16]
  IC50: 14.1 ± 1.2 nM
[2]; [17]
  IC50: 7.1 ± 1.6 nM
[3]; [18]
  IC50: 16.1 ± 2.5 nM
U87 (glioma) cells; [19]
  IC50: 2.9 ± 1.1 nM
[4]; [20]
  IC50: 5.1 ± 2 nM
[5]; [21]
  IC50: 9.1 nM

## CCC1(O)C(=O)OCc2c1cc1n(c2=O)Cc2cc3c(CC=NOC(C)(C)C)c(OC(C)=O)ccc3nc2-1 (stereo not shown) [CPT8]
[1]; [16]
  IC50: 19.3 ± 2.2 nM
[2]; [17]
  IC50: 11.1 ± 1.8 nM
[3]; [18]
  IC50: 23.1 ± 3.1 nM
U87 (glioma) cells; [19]
  IC50: 4.1 ± 1.7 nM
[4]; [20]
  IC50: 7.1 ± 2.1 nM
[5]
  in vitro activity / cytotoxicity (in words): significant cytotoxicity
[5]; [21]
  IC50: 12.9 nM

## CCc1c2c(nc3ccc(O)cc13)-c1cc3c(c(=O)n1C2)COC(=O)[C@]3(O)CC [SN38]
[1]; [16]
  IC50: 16.6 ± 1.9 nM
[2]; [17]
  IC50: 8.7 ± 1.2 nM
[3]; [18]
  IC50: 17.1 ± 3.2 nM
U87 (glioma) cells; [19]
  IC50: 3.1 ± 1.1 nM
[4]; [20]
  IC50: 6.8 ± 2.6 nM
[5]; [21]
  IC50: 10.5 nM

## CC[C@@]1(O)C(=O)OCc2c1cc1n(c2=O)Cc2cc3c(CN(C)C)c(O)ccc3nc2-1 [Topotecan]
[1]; Homo sapiens, A549, 48 h
  IC50: 28.5 ± 3.9 nM
[2]; Homo sapiens, HT-29, 48 h
  IC50: 17.3 ± 4.2 nM
[3]; Homo sapiens, 48 h
  IC50: 21.1 ± 2.6 nM
U87 (glioma) cells; Homo sapiens, U-87 MG, 48 h
  IC50: 12.5 ± 3.2 nM
[4]; Homo sapiens, BXPC-3, 48 h
  IC50: 19.1 ± 3.7 nM
[5]; [21]
  IC50: 19.7 nM
[6]; [12]
  Maximum change in weight (%): −14%
[6]; [13]
  Tumor disappear: 2/6
  T.S. (mm3) D 16: 124 ± 12 mm3
[6]
  T.S. (mm3) D 0: 323 ± 47 mm3
[7]; [13]
  Tumor inhibition: 18.9
  T.S. (mm3) D 16: 1478 ± 226 mm3
[7]; [14]
  Maximum change in weight (%): −12%
[7]
  T.S. (mm3) D 0: 223 ± 43 mm3
[9]
  MTD: 12 mg/kg

## CCC1(O)C(=O)OCc2c1cc1n(c2=O)Cc2cc3c(CC=NOC(C)(C)C)c(OC(=O)N4CCC(N5CCCCC5)CC4)ccc3nc2-1 (stereo not shown) [CPT1, 9-t-butyloxyethyloxime-10-[(4′-piperidinylpiperidinyl)carbonyloxy]-camptothecin]
[5]
  in vitro activity / cytotoxicity (in words): do not have significant activities in vitro
[6]; [13]
  Tumor disappear: 6/6
  T.S. (mm3) D 16: 0 mm3
[6]; mouse, in vivo
  Maximum change in weight (%): −13%
[6]
  T.S. (mm3) D 0: 356 ± 51 mm3
[7]; [13]
  Tumor inhibition: 80.4
  T.S. (mm3) D 16: 358 ± 34 mm3
[7]; mouse, in vivo
  Maximum change in weight (%): −12%
[7]
  T.S. (mm3) D 0: 236 ± 34 mm3
[8]; P<0.05
  Survival time compared with irinotecan and gimatecan: increased significantly
[8]; [15]
  Average survival time (days): 26.4 ± 1.2# days
[9]
  Experimentally determined dosage at the same level of toxicity (maximum tolerated dose): 55 mg/kg
[10]
  Solubility compared with CPT2-10: better
  Stability compared with CPT2-10: better
[11]
  Therapeutic effect against transplanted tumors (in words): good therapeutic effect

## CCC1(O)C(=O)OCc2c1cc1n(c2=O)Cc2cc3c(CC=NOC(C)(C)C)c(F)ccc3nc2-1 (stereo not shown) [CPT3, 9-t-butyloxyethyloxime-10-fluoro-camptothecin]
[1]; [16]
  IC50: 11.2 ± 1 nM
[2]; [17]
  IC50: 9.1 ± 3.2 nM
[3]; [18]
  IC50: 10.1 ± 2.1 nM
U87 (glioma) cells; [19]
  IC50: 2.1 ± 1 nM
[4]; [20]
  IC50: 3.1 ± 1.5 nM
[5]
  in vitro activity / cytotoxicity (in words): significant cytotoxicity
[5]; [21]
  IC50: 7.1 nM
